Experimental data reported in patent US11872296B2, “Preservation compositions” (Conopco, Inc., priority 2018, dated 2024).

Assays:
[1] = tested on: Gram negative non-fermenting bacteria: Pseudomonas aeruginosa, Pseudomonas putida & Burkholderia cepacia; experiment: Liquid broth checkerboard assay (MIC, ΣFIC synergy), Pool 1; type: cell-based; details: tryptic soy broth, 30° C., 24 hours, ΣFIC<1 synergistic
Excerpt: (§1) The differing behaviours of inhibitory antimicrobials in isolation and mixtures have been widely explored using the concept of the Fractional Concentration and Fractional Inhibitory Concentration (FIC). See for instance JRW Lambert and R Lambert, J. Appl. Microbiol 95, 734 (2003); T. Jadavji, CG Prober and R Cheung, Antimicrobial Agents and Chemotherapy 26, 91 (1984), and WO 2004/006876. These parameters can be defined as follows:
(§2) FC (component a)=Concentration of component a tested in the mixture/MIC (component a tested as a single active)
(§3) FIC (component a)=MIC (component a tested in the mixture)/MIC (component a tested as a single active)
(§4) The interactions between antimicrobials can be additive, synergistic or possibly antagonistic depending on whether the efficacy of the combination is equivalent to, greater than or less than that obtained for the same total concentration of the individual components when tested alone.
(§5) These relationships can be expressed mathematically by summing the fractional MIC values for all the components present in the mixture to give the “fractional inhibitory index”: ΣFIC=FIC(component 1)+FIC(component 2) Such that: ΣFIC≥1 corresponds to additive or antagonistic activity ΣFIC<1 corresponds to synergistic activity
(§6) Liquid broth assays (MIC and checkerboard) were conducted to identify the minimum concentration(s) of individual and binary combinations of preservation chemicals. A modified methodology to ISO 20776-1:2006 was utilised for the screening as follows. Stock solutions of preservation chemicals and tryptic soy broth were inoculated with 1-5×10^6 microorganisms and incubated at 30° C. for 24 hours, after which optical densities at OD600nm were measured. […] Preservation chemicals were screened at a concentration range of 0.0156-2%.

[2] = tested on: Gram negative fermenting bacteria: Enterobacter gergoviae & Klebsiella species; experiment: Liquid broth checkerboard assay (MIC, ΣFIC synergy), Pool 2; type: cell-based; details: tryptic soy broth, 30° C., 24 hours, ΣFIC<1 synergistic
Excerpt: as §1, §2, §3, §4, §5, §6

[3] = binary combination with Citric Acid
[4] = binary combination with Itaconic acid

`CCCCc1ccc(O)cc1` [4-n-butyl phenol] was tested, and the ΣFIC synergy score [1, 3] was 0.50, the ΣFIC synergy score [1, 4] was 0.44 and the ΣFIC synergy score [2, 3] was 0.59. The ΣFIC synergy score [2, 4] was 0.50.

In the case of `CCOc1cc(C=O)ccc1O` [Ethylvanillin], the ΣFIC synergy score [1, 3] is reported as 0.63, the ΣFIC synergy score [1, 4] is reported as 0.56 and the ΣFIC synergy score [2, 3] is reported as 0.69. It also gave a ΣFIC synergy score [2, 4] of 0.63.

In the case of `C=CCc1ccc(O)c(OC)c1` [Eugenol], the ΣFIC synergy score [1, 3] is reported as 0.75, the ΣFIC synergy score [1, 4] is reported as 0.38 and the ΣFIC synergy score [2, 3] is reported as 0.53. For the same compound, the ΣFIC synergy score [2, 4] was 0.38.
